In ChEMBL document CHEMBL4387735, “Chemically synthesized LYRM03 could inhibit the metastasis of human breast cancer MDA-MB-231 cells in vitro and in vivo” (Bioorg Med Chem Lett, 2019):
Each block holds one molecule with its values, some of them ahead of it. The source made the active and inactive calls. The calls are words filed in the database; no cut-off is given here.

What was measured:
MDA-MB-231 [1] = experiment: Cytotoxicity against human MDA-MB-231 cells assessed as reduction in cell viability at 100 ug/ml incubated for 48 hrs by MTT assay; assay type: cell-based; details: mda-mb-231, 48 h
[2] = biological target: Aminopeptidase N (Homo sapiens) (UniProt P15144); details: MDA-MB-231, 50 ug/ml
Aminopeptidase N (Homo sapiens), sequence (P15144 whole entry): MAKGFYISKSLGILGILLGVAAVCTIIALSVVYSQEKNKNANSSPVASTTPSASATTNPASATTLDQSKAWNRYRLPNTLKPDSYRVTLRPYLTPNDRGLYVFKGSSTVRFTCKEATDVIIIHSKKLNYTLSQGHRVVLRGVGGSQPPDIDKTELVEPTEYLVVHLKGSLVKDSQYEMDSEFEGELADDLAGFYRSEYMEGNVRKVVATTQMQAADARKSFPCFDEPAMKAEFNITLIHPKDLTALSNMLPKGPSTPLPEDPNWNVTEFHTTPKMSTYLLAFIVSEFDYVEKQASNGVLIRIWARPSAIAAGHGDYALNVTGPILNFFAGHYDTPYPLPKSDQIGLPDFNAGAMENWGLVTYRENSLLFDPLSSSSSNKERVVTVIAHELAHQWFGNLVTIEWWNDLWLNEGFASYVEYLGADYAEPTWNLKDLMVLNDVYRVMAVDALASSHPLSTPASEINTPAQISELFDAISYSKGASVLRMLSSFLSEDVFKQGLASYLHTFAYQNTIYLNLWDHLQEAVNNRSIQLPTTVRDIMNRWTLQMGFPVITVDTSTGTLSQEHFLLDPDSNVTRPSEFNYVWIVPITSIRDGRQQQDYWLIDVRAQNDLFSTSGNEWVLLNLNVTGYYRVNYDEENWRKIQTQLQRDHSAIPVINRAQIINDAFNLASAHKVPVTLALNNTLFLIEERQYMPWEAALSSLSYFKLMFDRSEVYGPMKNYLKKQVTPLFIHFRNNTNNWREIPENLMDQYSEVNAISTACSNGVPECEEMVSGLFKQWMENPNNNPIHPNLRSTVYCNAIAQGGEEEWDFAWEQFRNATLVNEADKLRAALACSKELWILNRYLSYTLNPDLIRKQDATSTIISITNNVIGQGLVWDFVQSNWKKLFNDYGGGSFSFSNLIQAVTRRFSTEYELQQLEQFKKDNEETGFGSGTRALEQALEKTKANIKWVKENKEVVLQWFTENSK
Description: Inhibition of human APN in MDA-MB-231 cells at 50 ug/ml using L-leucine-p-nitroanilide as a substrate incubated for 1 hr by spectrophotometric method relative to control

MDA-MB-231 [3] = experiment: Antimetastatic activity against human MDA-MB-231 cells xenografted in SCID mouse assessed as reduction in metastasis foci formation in lungs at 100 mg/kg, ip administered 3 times per week by hematoxylin-eosin staining based assay; assay type: functional, organism-based
MDA-MB-231 [4] = experiment: Effect on MMP7 protein expression in human MDA-MB-231 cells; assay type: functional, cell-based
MDA-MB-231 [5] = experiment: Induction of apoptosis in human MDA-MB-231 cells assessed as early apoptotic cells at 50 ug/ml by Annexin V/PI staining based flow cytometric method (reference value: 0.54%); assay type: functional
MDA-MB-231 [6] = experiment: Cytotoxicity against human MDA-MB-231 cells assessed as reduction in cell viability at 100 ug/ml incubated for 24 to 48 hrs by MTT assay relative to control; assay type: cell-based
[7] = biological target: Aminopeptidase N (Homo sapiens) (UniProt P15144); experiment: Inhibition of human APN in MDA-MB-231 cells at >50 ug/ml using L-leucine-p-nitroanilide as a substrate incubated for 1 hr by spectrophotometric method relative to control; assay type: cell-based
MDA-MB-231 [8] = experiment: Induction of apoptosis in human MDA-MB-231 cells assessed as late apoptotic cells at 100 ug/ml by Annexin V/PI staining based flow cytometric method (reference value: 0.92%); assay type: functional
MDA-MB-231 [9] = experiment: Inhibition of cell migration in human MDA-MB-231 cells assessed as scratch healing at 10 to 100 ug/ml incubated for 24 hrs by wound healing assay; assay type: functional; set-up: scale not given: the % may be the effect or the level left
MDA-MB-231 [10] = experiment: Effect on MMP2 protein expression in human MDA-MB-231 cells; assay type: functional, cell-based
MDA-MB-231 [11] = experiment: Effect on APN protein expression in human MDA-MB-231 cells at 10 to 100 ug/ml by Western blot analysis; assay type: functional, cell-based
MDA-MB-231 [12] = experiment: Antimetastatic activity in human MDA-MB-231 cells assessed as reduction in cell migration at 50 to 100 ug/ml incubated for 24 hrs by transwell assay; assay type: functional, cell-based
MDA-MB-231 [13] = experiment: Induction of apoptosis in human MDA-MB-231 cells assessed as early apoptotic cells at 100 ug/ml by Annexin V/PI staining based flow cytometric method (reference value: 0.54%); assay type: functional
MDA-MB-231 [14] = experiment: Induction of apoptosis in human MDA-MB-231 cells assessed as necrotic cells at 50 ug/ml by Annexin V/PI staining based flow cytometric method (reference value: 7.79%); assay type: functional
MDA-MB-231 [15] = experiment: Antimigratory activity in human MDA-MB-231 cells assessed as induction of slow cell migration at 100 ug/ml incubated up to 24 hrs by wound healing assay; assay type: functional, cell-based
MDA-MB-231 [16] = experiment: Induction of apoptosis in human MDA-MB-231 cells assessed as late apoptotic cells at 50 ug/ml by Annexin V/PI staining based flow cytometric method (reference value: 0.92%); assay type: functional
MDA-MB-231 [17] = experiment: Induction of apoptosis in human MDA-MB-231 cells assessed as necrotic cells at 100 ug/ml by Annexin V/PI staining based flow cytometric method (reference value: 7.79%); assay type: functional
MDA-MB-231 [18] = experiment: Inhibition of cell migration in human MDA-MB-231 cells incubated upto to 24 hrs by wound healing assay; assay type: functional, cell-based
MDA-MB-231 [19] = experiment: Effect on MMP9 protein expression in human MDA-MB-231 cells; assay type: functional, cell-based
MDA-MB-231 [20] = experiment: Induction of apoptosis in human MDA-MB-231 cells assessed as induction of PARP cleavage at 10 to 100 ug/ml 6 to 48 hrs by Western blot analysis; assay type: functional, cell-based
MDA-MB-231 [21] = experiment: Inhibition of colony formation in human MDA-MB-231 cells at 50 to 100 ug/ml incubated for 10 days; assay type: functional, cell-based
MDA-MB-231 [22] = experiment: Induction of apoptosis in human MDA-MB-231 cells assessed as live cells at 100 ug/ml by Annexin V/PI staining based flow cytometric method (reference value: 90.75%); assay type: functional
MDA-MB-231 [23] = experiment: Induction of apoptosis in human MDA-MB-231 cells assessed as live cells at 50 ug/ml by Annexin V/PI staining based flow cytometric method (reference value: 90.75%); assay type: functional

inhibition [2]: Active
Compound: CC(C)C[C@H](NC(=O)[C@@H](O)[C@H](N)Cc1ccccc1)C(=O)O [UBENIMEX]
Activity (MDA-MB-231 [1]): Toxic
Activity (MDA-MB-231 [3]): Active

inhibition [7]: > 50%
Compound: CC[C@H](C)[C@H](NC(=O)[C@@H](NC(=O)[C@@H](O)[C@H](N)Cc1ccccc1)C(C)C)C(=O)O
Activity (MDA-MB-231 [4]): inactive
Activity (MDA-MB-231 [5]): 0.73%
Activity (MDA-MB-231 [6]): <= 20%
Activity (MDA-MB-231 [8]): 0.75%
Activity (MDA-MB-231 [9]): 50%
Activity (MDA-MB-231 [10]): inactive
Activity (MDA-MB-231 [11]): inactive
Activity (MDA-MB-231 [12]): Active
Activity (MDA-MB-231 [13]): 0.71%
Activity (MDA-MB-231 [14]): 8.51%
Activity (MDA-MB-231 [15]): Active
Activity (MDA-MB-231 [16]): 0.77%
Activity (MDA-MB-231 [17]): 9.05%
inhibition (MDA-MB-231 [18]): Dose-dependent effect
Activity (MDA-MB-231 [19]): inactive
Activity (MDA-MB-231 [20]): inactive
inhibition (MDA-MB-231 [21]): Active
Activity (MDA-MB-231 [3]): Active
Activity (MDA-MB-231 [22]): 89.5%
Activity (MDA-MB-231 [23]): 89.98%
